Test results from PubChem BioAssay AID1996.
≈ marks a conversion by molar mass, not a printed value.

Settings: buffer; pH 7.4; 200.0 µM

Row | SMILES | solubility kinetic [µg/mL]
1 | COC(=O)c1ccc(OCC(O)CNC2CCCC2)cc1.Cl (stereo not given) | 47.7
2 | Cc1cccc(NC(=O)C2CCN(S(C)(=O)=O)CC2)c1C | > 46.6
3 | Cc1ccc(-c2csc(NC3OC(=O)c4ccccc43)n2)cc1 (stereo not given) | 0.4 (≈ 1.24 µM)
4 | COc1ccc(NC(=O)C2CC(=O)n3c(nc4ccccc43)N2)cc1 (stereo not given) | 0.3 (≈ 0.892 µM)
5 | Cc1ccc(C(=O)CN2C(=O)C(C)Oc3ccccc32)cc1 (stereo not given) | 21.6 (≈ 73.1 µM)
6 | COc1ccc(/C=C/c2nc(-c3ccccc3)cc(=O)[nH]2)cc1 | < 0.3
7 | Cc1ccnc(NC(=O)c2oc3ccccc3c2C)c1 | 3.6 (≈ 13.5 µM)
8 | O=C(OCc1cc(Cl)cc2c1OCOC2)c1cccnc1Cl | 8.5 (≈ 25 µM)
9 | CCc1ccc(NC(=O)CN2CC(c3ccccc3)CC2=O)cc1 (stereo not given) | > 48.4
10 | O=C(O)c1ccccc1C(=O)NCCCn1ccnc1 | > 41
11 | N/C(=N\c1nc2ccccc2o1)NC(=O)c1cccc(Br)c1 | < 0.2
12 | CC1CCN(S(=O)(=O)c2cccc(C(=O)Nc3ccccc3)c2)CC1 | 1.3 (≈ 3.63 µM)
13 | CC(=O)c1sccc1NC(=O)c1ccccc1C(=O)O | > 43.4
14 | NC(N)=NCCCC(NC(=O)c1ccccc1)C(=O)Nc1ccc2ccccc2c1 (stereo not given) | 52.2 (≈ 129 µM)
15 | COCc1cc(C)nc(SCc2ccccc2Cl)c1C#N | 0.3 (≈ 0.941 µM)
16 | COc1ccc(CCn2c(C)c(C(C)=O)c(C(C)=O)c2C)cc1OC | > 51.5
17 | COc1cccc2[nH]c(C(=O)NCCCN3CCCC3=O)cc12 | > 47.3

Row | SMILES | solubility kinetic [µg/mL]
18 | COc1ccc(C2=NOC(CNC(=S)N3CCOCC3)C2)cc1 (stereo not given) | 12.8 (≈ 38.2 µM)
19 | CN(CC(=O)Nc1ccccc1F)Cc1cccs1 | 30.1 (≈ 108 µM)
20 | NC(=O)C1CCN(c2ccc(C(F)(F)F)cn2)CC1 | > 41
21 | Nc1ccc(-c2cnc3ccccc3n2)cc1 | 27.4 (≈ 124 µM)
22 | N/C(=N\OC(=O)c1ccc(OCC(F)(F)F)nc1)c1ccc(Cl)cc1 | 1.2 (≈ 3.21 µM)
23 | COc1ccc(NC2CCCN(C(=O)c3c(C)noc3C)C2)cc1 (stereo not given) | > 49.4
24 | Cc1ccc(S(=O)(=O)NC(C)(C)CN2CCCCC2)cc1 | > 46.6
25 | CC(C)OCc1c(C(=O)Nc2nccs2)oc2ccccc12 | 2.6 (≈ 8.22 µM)
26 | COc1ccc(COC(=O)CN2C(=O)NC3(CC(C)CC(C)(C)C3)C2=O)cc1F (stereo not given) | 5.1 (≈ 12.5 µM)
27 | CCCCCn1c(N2CCCC2)nc2c1c(=O)n(C)c(=O)n2C | > 47.9
28 | CC1CCN(c2nc3ccccn3c(=O)c2C=O)CC1 | > 40.7
29 | CC(C)(Oc1ccc(Cl)cc1)C(=O)N1CCN(C(=O)c2ccco2)CC1 | > 56.5
30 | COc1ccc2c(c1)c(CC[NH3+])c(C)n2Cc1ccccc1.[Cl-] | 44.5
31 | CN(Cc1cccs1)C(=O)CNC(=O)c1ccco1 | > 41.7
32 | COC(=O)c1ccc(Nc2ccc3nonc3c2[N+](=O)[O-])cc1 | < 0.2
33 | O=C(Nc1ccc(F)c(Cl)c1)c1ccc2c(c1)OCO2 | < 0.6

More lines, now with the values ahead:

Row | solubility kinetic [µg/mL] | SMILES
34 | > 50.1 | Br.O=C(O)c1ccccc1CSC1=NCCS1
35 | > 35.3 | N#Cc1cccc(C#N)c1Oc1ccc(N)cc1
36 | 11.6 (≈ 34 µM) | O=S(=O)(NC1CCSc2ccccc21)c1ccc(Cl)nc1 (stereo not given)
37 | > 67.3 | COc1ccc(S(=O)(=O)N2CCOCC2)cc1NS(=O)(=O)c1ccc(F)c(F)c1
38 | > 38.1 | Cc1ccc(C(C)NC(=O)c2ccncc2)c(C)c1 (stereo not given)
39 | 38.4 (≈ 138 µM) | COc1ccc(CNC(=S)NC2CCCCC2)cc1
40 | 6.2 (≈ 16.5 µM) | O=C(NC12CC3CC(CC(C3)C1)C2)N(Cc1ccccc1)Cc1ccncc1
41 | > 48.8 | COc1ccc(/C=C/C(=O)O)cc1S(=O)(=O)N1CCCCC1
42 | > 44.8 | O=C(NCC1CCCO1)c1ccc2[nH]c3c(c2c1)CCCC3 (stereo not given)
43 | 9.8 (≈ 31.9 µM) | COc1ccc(CN2C(=O)c3cccc4cccc2c34)cc1F
44 | 25.4 (≈ 60 µM) | COc1ccc(S(=O)(=O)Oc2cc(C(=S)N3CCOCC3)ccc2OC)cc1
45 | > 59.3 | Cc1c(NC(=O)C(C)OC(=O)c2ccccc2O)c(=O)n(-c2ccccc2)n1C (stereo not given)
46 | > 73.4 | COc1ccc(C(CNC(=O)c2cccc(S(=O)(=O)N3CCOCC3)c2)N2CCOCC2)cc1 (stereo not given)
47 | > 39.8 | O=C1ON=C(c2ccccc2)/C1=C/c1ccc(O)cc1
48 | 41.9 (≈ 148 µM) | COc1ccc(C(=O)NC(C)CCc2ccccc2)cc1 (stereo not given)
49 | > 53.2 | COc1ccc(NC(=O)C2CC(=O)N(c3ccccc3C)C2)c(OC)c1 (stereo not given)
50 | > 36.7 | Cc1noc(C(=O)NCC2CCCO2)c1Cl (stereo not given)
51 | 13.3 (≈ 34.4 µM) | Cc1cc(C(C)(C)C)cc(C)c1COC(=O)CN1C(=O)NC2(CCCC2)C1=O
52 | 1.2 (≈ 4 µM) | COc1ccc(NC(=O)Nc2ccc3c(c2)OCO3)c(C)c1
53 | > 48.7 | NC(=NCCc1c[nH]c2ccccc12)NC(=O)c1ccc(F)cc1
54 | > 38.6 | CCC(=O)c1c[nH]c(C(=O)NCc2cccnc2)c1
55 | 50.4 (≈ 144 µM) | Cc1ccc(-c2ccc(CCC(=O)O)n2-c2cccc(C(=O)O)c2)cc1
56 | 3.4 (≈ 11.4 µM) | C=CCNC(=O)c1cc2c(=O)n3cccc(C)c3nc2s1
57 | 49 (≈ 143 µM) | O=C1c2ccc(Oc3ccc([N+](=O)[O-])cc3)cc2C(=O)N1CCCO
58 | 1.7 (≈ 5.42 µM) | CC(=O)NCCC(=O)Nc1nc2c(ccc3ccccc32)s1
59 | < 0.6 | O=C(Nc1ccc(F)cc1F)c1cc2ccccc2oc1=O
60 | > 36.3 | COc1ccccc1CNC(=O)c1ccncc1
